Article PMC4322365, “A Ligand-observed Mass Spectrometry Approach Integrated into the Fragment Based Lead Discovery Pipeline” (Scientific Reports, 2015)

The molecules below were run against T1, NS5B (Hepatitis C virus genotype 1b, UniProt P26663) (assay: X-ray crystallography of fragments soaked into NS5B crystals). Conditions: fragments soaked at 5 mM.
T1 construct: NS5B with a C-terminal 10-His tag was expressed in E. coli; 10-His (C); made in house; host or cells: E. coli
Assay type: binding
Excerpt: Similar to other nucleotide polymerases, the domain distribution of apo HCV NS5B polymerase bears an anatomical resemblance to a right hand with subdomains representing the fingers, thumb and palm[50][51]. Structural and mechanistic studies of NS5B have indicated the existence of multiple allosteric binding domains including palm I, II and III pockets and thumb I and II sites targeted by reported inhibitors. To characterize the binding modes of the fragments studied, they were soaked in NS5B crystals to obtain the protein complex X-ray structures. We were able to resolve electron density corresponding to the soaked compound for five out of ten fragments (crystallographic data summary in Table S4).
Moreover, the interaction could be enhanced by a π-π conjugate between its benzene ring and Tyr448 (Figure 3A). Fragment 204 engages deep in the palm I pocket through its trifluoromethyl moiety forming a hydrogen bond with Ser368 and van der Waals interaction with Cys366. Additionally, the hydrophobic interaction with Met414 as well as the π-π conjugate to Tyr448 may also contribute to the relatively high binding affinity of this fragment (Figure 3B). Fragment 117 binds at the pocket mainly through van der Waals interactions with Met414, Cys366 and Ser368 (Figure 3C), whereas fragment 328 forms van der Waals interactions with Tyr415 and Cys366 (Figure 3D). We assume these weak interactions may result in the lower binding strengths observed for the two fragments. Fragment 162 binds NS5B in a small cavity of the thumb pocket, with its trifluoromethyl moiety extending a key hydrogen bond with Asn369 as well as making hydrophobic interactions with Ser371 and Glu481. To our knowledge, the three residues constitute a new active domain in the thumb region never disclosed before.
The final optimized NS5B crystals were grown by the hanging drop method using a well solution of 30 mg/mL protein, 20% (w/v) PEG-4000, 10% (v/v) glycerol, 5 mM DTT and 50 mM MES (pH 5.5) and diffracted to 2 Å. Fragments were soaked onto the NS5B crystals at a final concentration of 5 mM (2.38% DMSO) for 2–3 days. Diffraction data were collected at Rigaku MicorMax 007HF X-ray diffraction instrument with an R-AXIS HTC detector (Rigaku), and processed using CCP4[60]. The NS5B structure was solved by molecular replacement using NS5B (1QUV) as the search model. The fragment-bound NS5B complex structures were determined by rigid-body refinement using the apo NS5B structure as a starting model. Structure improvement proceeded with multiple rounds of manual model building in Coot, followed by refinement using CCP4. Fragment ligands were fitted into clear Fo-Fc electron density at the late stage of refinement. Images were rendered from PyMOL.

Compound	Binding site in crystal structure
Nc1ccc(C(F)(F)F)cn1 [Fragment 162]	thumb region
Cc1ccc2oc(=O)ccc2c1 [Fragment 117]	palm I allosteric domain
N#CCc1ccc(O)cc1 [Fragment 114]	palm I allosteric domain
O=C(O)c1ccc(C(F)(F)F)cc1 [Fragment 204]	palm I allosteric domain
N#CC(c1ccccc1)N1CCOCC1 (stereo not drawn) [Fragment 328]	palm I allosteric domain

What follows are molecules tested against T2, NS5B wild-type (Hepatitis C virus genotype 1b, UniProt P26663) (assay: In-solution binding specificity, ligand-observed MS, wild-type NS5B). Conditions: WT + 204; defined as 100%.
T2 construct: NS5B with a C-terminal 10-His tag was expressed in E. coli; 10-His (C); made in house; host or cells: E. coli
Excerpt: To evaluate the binding specificity of fragment 204 to the palm domain of NS5B through interacting with certain residues indicated in the crystallographic data, we prepared two presumable binding-site mutants in the palm domain (C366A and M414T), and a control mutant in the thumb domain (M423T). […] Therefore, this experiment strongly implicated the finding by X-ray crystallography that fragment 204 binds to the palm domain of NS5B through interaction with Cys366 and Met414 was also valid in solution.
NS5B with a C-terminal 10-His tag was expressed in E. coli. Site-directed mutagenesis was performed using the Quick Site-directed mutagenesis kit according to the manufacturer's instructions (Stratagene, China). All constructs were verified by DNA sequencing. […]
In the primary screening, a mixture of 384 fragments (each at a final concentration of 25 μM) and NS5B at 50 μM was prepared in the binding buffer of 20 mM MES (pH 6.5), 300 mM NaCl and 10% glycerol, and incubated for 40 min at 25°C. […] The supernatant containing the ligands was evaporated by a speed vacuum, reconstituted in 80% methanol, and analyzed by LC/MS. […] Samples were all prepared in duplicate and analyzed separately.

Compound	MS int. (%)
O=C(O)c1ccc(C(F)(F)F)cc1 [Fragment 204]	100.0%
